Experimental data: patent publication US4444690A, “Technetium chelates” (priority 1982, dated 1984)
“And” between values parts separate entries of the source, which are not always exact repeats. Equal values may be shown once. Read-outs that look alike come from different tables or passages of the source.

Experiments:
[1] = Organ biodistribution time course of Tc-CO2-DADS components in mice (Table 1); type: in vivo, Hal Cr female albino mice; conditions: for Blood / Intestines / Stomach / Urine / Kidneys / Liver: mean of 6; for OIH Urine: mouse, in vivo
Method: The time course of organ distribution was determined in groups of six Hal Cr female albino mice. They were injected with 0.10 ml (0.5 uCi) of the preparation. For comparison purposes, 0.2 uCi OIH was added to each injection. The mice were placed in metabolic cages for the collection of excreted urine. At indicated intervals after injection, the urethra was ligated and the mice killed with chloroform vapor. The organs were removed and counted in a dual channel counter with correction for I-131 crossover into the Tc-99m channel.

[2] = Blood disappearance rates in rats (FIG. 3); type: in vivo, male Sprague-Dawley rats
Description: These determinations were made in male Sprague-Dawley rats.

[3] = for renal excretion (urine appearance) in words: rabbits, FIG. 4
Method: (§1) Organ biodistribution and acute toxicity studies were carried out in mice, blood disappearance and bile appearance rates were determined by sampling of bood or bile in rats, and renal excretion rates of the two Tc-2,3-bis(mercaptoacetamido)propanoic acid components, Tc-DTPA, and OIH were determined in rabbits because of greater ease of urine sampling. The HPLC-purified Tc-2,3-bis(mercaptoacetamido)propanoate components were used directly except for dilution as necessary. In general HPLC collected volumes were 1 to 1.5 ml and were not diluted for rabbit studies, were diluted 2- to 10-fold for rat studies and were diluted about 20-fold for mouse studies. In most cases determinations were made with simultaneous administration of OIH.
The rate of renal excretion was measured in New Zealand albino male rabbits. They were anesthetized with ketamine and xylazine and placed on a gamma camera provided with digital storage. After injection of 0.5 to 1 mCi of the Tc-99m complex containing 0.5μCi of OIH, images were collected on tape for 45 minutes. At 35 minutes after injection, urine was expelled from the bladder and the percentage of injected dose contained in the expelled urine was determined. Accumulation of bladder radioactivity was monitored by placing a region of interest over the bladder. The drop in the radioactivity in the bladder after expelling the urine sample (50-80% of the bladder radioactivity) allowed calibration of the bladder time-activity curve in terms of percent injected dose.

plasma proteins = assay: Plasma protein binding, ultrafiltration; type: in vitro ADME
Method: (§2) Studies of protein binding were carried out in plasma using an ultrafiltration method described at J.Nucl.Med. 22, 258-263, 1981.

[4] = rats, 90 minutes; for biliary excretion of radioactivity in the absence of renal function: renal pedicles ligated
Method: as §1
These determinations were made in male Sprague-Dawley rats. For blood studies the animals were anesthetized with sodium pentobarbital, a line was placed in a femoral vein for tracer injections and hydration, and another was placed in a carotid artery for blood sampling. About 20μCi (0.25 ml) each of OIH and Tc-99m complex under study were injected and 0.1 to 0.2 ml samples of blood were taken at 1, 2, 3, 4, 5, 6, 9, 12, 15, 20, 25, 30, 45, 60, 75, and 90 minutes after injection. Biliary excretion in the absence of renal function was determined by cannulating the common bile duct, ligating the renal pedicles, and collecting bile in 4-minute fractions for 90 minutes.

renal tubular transport [5] = conditions: mouse, in vivo
Method: (§3) A dose of 50 mg/kg of probenicid was given 10 minutes prior to injection of radiochemicals. OIH was injected simultaneously.
(§4) *Values are mean and S.E.M. percent injected dose at 10 min. post

[6] = Plasma protein binding, ultrafiltration; type: in vitro ADME; conditions: plasma, duplicate determinations, read-out: binding to plasma proteins (converted)
Method: as §2

[7] = cited from earlier work
renal tubular transport [8] = assay: Tubular transport inhibition study with probenicid (Table 2); conditions: mice; for Blood / Intestines / Kidneys / Liver / Urine (renal excretion): 10 min post injection; for Urine (renal excretion): 10 min
Method: as §3, §4

[9] = mice, 5 min post injection, listed as Tc--CO2 --DADS--A
[10] = mice, 5 min post injection, listed as component A
[11] = mice, 10 min post injection, listed as Tc--CO2 --DADS--A
[12] = mice, 30 min post injection, listed as Tc--CO2 --DADS--A
[13] = mice, 120 min post injection, listed as Tc--CO2 --DADS--A
[14] = animals with normal renal function
[15] = probenicid treated (50 mg/kg, 10 min prior)

## O=C(O)C1C[N]2C(=O)C[S][99Tc-]23(=[O])[S]CC(=O)[N]13 (single isomer, unassigned) [Tc-2,3-bis(mercaptoacetamido)propanoate-A] [Tc-99m-2,3-bis(mercaptoacetamido)propanoate]
[1]; mice, 5 min post injection
  Blood: 8.19 percent injected dose
  Intestines: 1.61 percent injected dose
  Stomach: 0.24 percent injected dose
[1]; mice, 5 min post injection, listed as Tc-2,3-bis(mercaptoacetmido)propanoate-A, 5 min
  Urine: 45 percent injected dose
[1]; [9]
  Kidneys: 5.61 percent injected dose
  Liver: 7.81 percent injected dose
[1]; mice, 5 min post injection, listed as Tc--CO2 --DADS--A, 5 min
  Urine: 45.52 percent injected dose
[1]; [10]
  Kidneys: 5.6 percent injected dose
  Liver: about 8 percent injected dose
[1]; [11]
  Blood: 3.10 percent injected dose
  Intestines: 0.82 percent injected dose
  Kidneys: 2.23 percent injected dose
  Liver: 4.26 percent injected dose
  Stomach: 0.11 percent injected dose
[1]; mice, 10 min post injection, listed as Tc--CO2 --DADS--A, 10 min
  Urine: 67.97 percent injected dose
[1]; mice, 15 min post injection
  Blood: 1.95 percent injected dose
  Intestines: 0.86 percent injected dose
  Kidneys: 1.30 percent injected dose
  Liver: 3.79 percent injected dose
  Stomach: 0.09 percent injected dose
  Urine: 75.08 percent injected dose
[1]; mice, 30 min post injection
  Intestines: 1.05 percent injected dose
  Liver: 1.34 percent injected dose
  Stomach: 0.07 percent injected dose
  Urine: 80.82 percent injected dose
[1]; mice, 30 min post injection, listed as Tc-2,3-bis(mercaptoacetmido)propanoate-A
  Kidneys: less than 1 percent injected dose
[1]; [12]
  Blood: 0.59 percent injected dose
  Kidneys: 0.51 percent injected dose
[1]; mice, 30 min post injection, listed as component A
  Blood: 0.6 percent injected dose
[1]; [13]
  Blood: 0.21 percent injected dose
  Intestines: 1.46 percent injected dose
  Kidneys: 0.25 percent injected dose
  Liver: 0.78 percent injected dose
  Stomach: 0.04 percent injected dose
[1]; mice, 120 min post injection, listed as Tc--CO2 --DADS--A, 120 min
  Urine: 86.57 percent injected dose
[1]; mice, 120 min post injection, listed as component A
  Liver: less than 1 percent injected dose
[1]; mice, at any time interval
  radioactivity seen in the intestine: ≤ 1.6%
[1]; mice, comparison with OIH or component A
  renal excretion / clearance in words: slightly higher than or comparable to OIH in renal excretion
[2]; rats
  time at which radioactivity remaining in the blood was 2%: 36 min
  time at which radioactivity remaining in the blood was 5%: 16.5 min
[2]; rats, FIG. 3
  blood disappearance in words: higher initial value resulted in comparable curve slopes
[2]; rats, FIG. 3, listed as component A
  blood disappearance in words: comparable to or slightly greater than that of OIH
[3]; [14]
  rate of renal excretion in words: equivalent to OIH
  specificity for renal excretion: nearly complete
[3]
  renal excretion (urine appearance) in words: slightly greater extent than OIH although differences were only significant at 35 minutes (p<0.05)
[3]; listed as Component A
  renal excretion (urine appearance) in words: slightly faster than OIH from 10 minutes onward
Plasma proteins
  protein binding in words: high degree of protein binding
Plasma proteins; 10 min
  binding to plasma proteins: 93%
Plasma proteins; 0.5 h
  binding to plasma proteins: 94%
[4]; absence of renal function
  radioactivity in muscle: 22%
  radioactivity in the blood: 21%
  radioactivity in the kidneys: 1%
  radioactivity in the liver: 4%
  radioactivity in the spleen: 0.1%
  radioactivity in the stomach: 0.3%
[4]
  biliary excretion of radioactivity in the absence of renal function: less than 3%
[4]; listed as Tc-99m-2,3-bis(mercaptoacetamido)propanoate-A
  biliary excretion of radioactivity in the absence of renal function: 3.1%
Renal tubular transport [5]
  biliary excretion with probenicid, in words: not increased significantly
  liver radioactivity with probenicid, in words: Biliary excretion was not increased significantly for component A, but liver radioactivity was
Renal tubular transport [5]; 10 min
  Blood: 3.37 percent injected dose
  Intestines: 0.77 percent injected dose
  Kidneys: 2.53 percent injected dose
  Liver: 4.21 percent injected dose

## O=C(O)CNC(=O)c1ccccc1[131I] [OIH, I-131 o-iodohippurate]
[1]; 5 min
  OIH Urine: 42.02 percent injected dose
[1]; 10 min
  OIH Urine: 64.94 percent injected dose
[1]; 0.25 h
  OIH Urine: 78.24 percent injected dose
[1]; 2 h
  OIH Urine: 82.43 percent injected dose
[2]; rat, in vivo
  blood disappearance in words: most rapid disappearance through 75 minutes
[6]; 10 minutes
  fraction unbound at 10 min: 0.36
[6]; 30 minutes
  fraction unbound at 0.5 h: 0.44
[7]; renal
  extraction efficiency: about 67%
Renal tubular transport [8]; control
  Blood: 4.58 percent injected dose
  Intestines: 1.12 percent injected dose
  Kidneys: 2.83 percent injected dose
  Liver: 1.31 percent injected dose
  Urine (renal excretion): 64.94 percent injected dose and 65 percent injected dose
Renal tubular transport [8]; 10 minutes
  decrease of renal excretion by probenicid treatment: 20%
Renal tubular transport [8]; [15]
  Blood: 7.49 percent injected dose
  Intestines: 2.18 percent injected dose
  Kidneys: 3.79 percent injected dose
  Liver: 2.68 percent injected dose
  Urine (renal excretion): 52.62 percent injected dose and 52 percent injected dose

## Tc-99m diethylenetriaminepentaacetic acid [Tc-99m DTPA]
[7]; in vivo
  extraction efficiency: ≤ 20%
